According to US20250177448A1, “NEW USE OF PEG-PHOSPHOLIPID MOLECULES” (ICOAT MEDICAL AB, priority 2022, published 2025):
“Also recorded” adds a separate entry of the source.

How the values were obtained:
[1] = system: HLA Class I (antibody W6/32); assay: Anti-HLA antibody binding to PEG-phospholipid treated PBMCs, flow cytometry; assay type: cell-based; conditions: freshly isolated human PBMC
From the text: (§1) To test the efficacy of the PEG-phospholipid (SUNBRIGHT®) PP-050CN, N-(methylpolyoxyethylene oxycarbonyl)-1,2-dipalmitoyl-sn-glycero-3-phosphoethanolamine, sodium salt, NOF Corp., Japan) to block binding of anti-HLA antibodies to HLA antigens, similar to in a potential clinical setting, we used human PBMCs from healthy donors to block the HLA antigens.
(§2) • FITC Mouse Anti-Human HLA-ABC; Monoclonal (G46-2.6) (BD Pharmingen) cat no. 555552 • Biotin Mouse Anti-human HLA Class I antibody [W6/32] (Abcam) cat no. ab110665 • PE-streptavidin (BD Pharmingen) cat no. 554061
(§3) PBMC was isolated from whole blood by using Cytiva™ Ficoll-Paque™ PLUS Media (Cytiva 17-1440-02) following standard protocol. In brief, whole blood was diluted in equal volume of PBS and carefully layered on top of Ficoll paque and centrifuged at 800×g for 25 mins. A cloudy layer was separated from the top of Ficoll and washed twice again with PBS.
(§4) The cells were stained with FITC mouse anti-human HLA-ABC monoclonal antibodies and biotin mouse anti-human HLA class | antibody [W6/32] (Abcam) followed by PE-streptavidin. The stained cells were analyzed by Beckman coulter cytoflex S (Biovis, facility, IGP, Rudbeck laboratory).

[2] = system: HLA-ABC (antibody G46-2.6); assay: as above; assay type: cell-based; conditions: freshly isolated human PBMC
From the text: as §1, §2, §3, §4

CD31 = assay: Masking of antigens on HUVECs by coating with PEG-phospholipid, flow cytometry; assay type: cell-based, human; conditions: HUVEC, 0.5 mg/ml, 45 mins RT
Description: (§5) One hundred μL of HUVEC cell pellet (5×10^4 cells) were incubated in 0.5 mg/ml of PEG-phospholipid solution (final concentration, polyethylene glycol-phospholipid with PEG of 5 kDa (PEG-phospholipid) in PBS, SUNBRIGHT® PP-050CN, N-(methylpolyoxyethylene oxycarbonyl)-1,2-dipalmitoyl-sn-glycero-3-phosphoethanolamine, sodium salt, NOF Corp., Japan) or PBS for 45 mins at RT. Then, the cells were incubated with 5 μg/mL of FITC labelled antibodies for 15 min at RT: CD31 antibody (5 μg/ml) or isotype control Ab-FITC (BD biosciences) or with rabbit anti von Willebrand Factor (vWF) with rabbit IgG as control, both visualized by Alexa 488 goat anti-rabbit antibodies as given in Table 1.
(§6) Post analysis processing was carried out in FlowJo.

[3] = system: von Willebrand Factor (vWF); assay: as above; assay type: cell-based, human; conditions: HUVEC, 0.5 mg/ml, 45 mins RT
Description: as §5, §6

collectin-11 (CL-11) = assay: Binding of lectin pathway recognition molecule to coated HUVEC after plasma exposure, flow cytometry; assay type: cell-based; conditions: 0.5 mg/ml, after human plasma exposure
Description: as §6

blood group B antigen = assay: Anti-blood group B antigen antibody binding to coated human erythrocytes, flow cytometry; assay type: cell-based; conditions: blood type B RBCs, 2 mg/ml in PBS, 30 min room temperature
Description: Human erythrocytes were isolated from healthy human donors. They were pre-selected for specific blood types and only individuals exposing blood type B antigens were used. Human blood was drawn from the donors using a vacuum blood collection tube (5 mL, EDTA-2Na treated, TERUMO Co., Tokyo, Japan).
After plasma and buffy coat were removed by centrifugation (15 min, 2500×g, 3 times), the erythrocytes were re-suspended in cold PBS.
This Example was approved by ethical committee of the University of Tokyo (KE17-13). Human red blood cells (RBC) were isolated from whole blood of a type-B donor and suspended in phosphate-buffered saline (PBS). A cell pellet of RBCs (5×10^7 cells) was incubated with PEG-phospholipid (20 μl, 2 mg/ml in PBS) or PBS (50 μl, as control) for 30 min at room temperature (RT, 20-25° C.) with gentle mixing. After wash with PBS by centrifugation (120×g, 4° C., 1 min) twice, Alexa488-labeled anti-blood group B antigen antibody (10 μl, used without dilution, Blood Group B antigen antibody [HEB-29], GeneTex) or PBS (10 μl) was mixed with the treated RBCs for 10 min at RT. After washing with PBS by centrifugation (120×g, 4° C., 1 min), RBC were re-suspended with PBS (1 ml) for flow cytometry measurements. […] Post analysis processing was carried out in FlowJo (BD).

red blood cells = assay: Cell lysis of red blood cells caused by PEG-phospholipid coating; assay type: cell-based; conditions: at the levels able to efficiently mask surface antigens on red blood cells
Description: In order to investigate if the PEG-phospholipid was able to protect against complement mediated lysis, RBCs were used from 13 different donors who were typed for Rh complex and ABO antigens. RBCs were isolated and preincubated with PEG-phospholipid at varying concentrations, free PEG or PBS as described above. Cells were then washed (and the supernatant stored for analysis) with PBS (800 g×5 min, RT) and incubated with human serum (where the complement system is active) for 20 minutes at 37° C. They were then spun down again (800 g×5 min) and the supernatant was collected for analysis of hemolysis. The RBCs were analyzed for complement fixation (cells were incubated for 10 min with a
FITC-labelled anti-C3c antibody). RBCs were resuspended with PBS (1 mL) for flow cytometry measurements. […] Post analysis processing was carried out in FlowJo (BD). The supernatant was analyzed on a variable wavelength detection plate reader, Synergy HTX, for the absorbance at 540 nm. RBCs, which were lysed via osmotic stress, were run in parallel as positive controls. The background absorbance at 540 nm from PBS containing no cells was subtracted and the difference in absorbance between cells coated with PEG-phospholipid or PBS was then calculated.

Substance: N-(methylpolyoxyethylene oxycarbonyl)-1,2-dipalmitoyl-sn-glycero-3-phosphoethanolamine [PEG-phospholipid]
- binding of anti-HLA class I antibodies W6/32 to PBMCs [1]: robust inhibition
- binding of anti-HLA class I antibodies W6/32 to PBMCs ([1]; listed as PEG-phospholipids): inhibited
- binding of anti-HLA-ABC G46-2.6 to PBMCs [2]: robust inhibition
- binding of anti-HLA-ABC G46-2.6 to PBMCs ([2]; listed as PEG-phospholipids): inhibited
- masking of CD31 (CD31): < 20%
- detection of vWF [3]: did not decrease
- binding of CL-11 (collectin-11 (CL-11)): substantially reduced
- binding capacity of anti-blood group B antigen-antibody (blood group B antigen): effectively reduced; also recorded: effective masking
- cell lysis caused by the PEG-phospholipid molecules (red blood cells): did not cause any cell lysis
